Tested on: P. falciparum 3D7 growth, pLDH absorbance
Test: blood-stage malaria parasite growth potency – strain 3D7, dose response (AID 2305)

In order of falling IC50:
1. COc1ccc(-c2cccc(NC(=O)c3ccc(F)cc3)c2)cc1CNC(C)C  1380 nM
2. CN(c1ccc(NC(=O)c2cccc(F)c2)cc1)C1CCCN(Cc2cccc(O)c2)C1 (stereo not drawn)  1300 nM
3. CCNc1cc(-c2cccc(OC)c2)nc(Nc2ccc(F)cc2)n1  1270 nM
4. COc1cc(Cc2cnc(N)nc2N)cc(OCCCS(=O)(=O)O)c1OC  1170 nM
5. CCCCCC(=O)N1CCOC(CCN2CCC(c3ccccc3)CC2)(c2ccc(Cl)c(Cl)c2)C1 (stereo not drawn)  1120 nM
6. CC(C)Cn1c(Sc2ccc(C#N)c([N+](=O)[O-])c2)nnc1-c1ccccc1  1090 nM
7. Oc1ccc(CCNc2nc(NCCCOc3ccccc3-c3ccc(F)cc3)nc(N3CCNCC3)n2)cc1  1080 nM
8. CCCCCCCN1CC[C@@H](C[C@H](N)Cc2ccnc3ccc(OC)cc23)[C@@H](CC)C1  1070 nM
9. O=C(CCc1nc2c(cnn2-c2ccccc2)c(=O)[nH]1)NC1CCSc2ccccc21 (stereo not drawn)  1060 nM
10. CC1CCNc2ccc(Cc3cnc(N)nc3N)cc21 (stereo not drawn)  1040 nM
11. Cc1cc(N2CCOCC2)nc2ccc(NC(=O)c3ccc(Cl)c([N+](=O)[O-])c3)cc12  1030 nM
12. c1ccc(CNc2nc(NCCN3CCCCC3)nc3ccccc23)cc1  1020 nM
13. CN(C)CCNC(=O)N1CCCN(c2ncnc3cc(-c4ccc(Cl)cc4)sc23)CC1  1020 nM
14. O=C(C=Cc1ccc(Cl)c(Cl)c1)NCCCCCN1CCC(CCNC(=O)C(c2ccccc2)c2ccccc2)CC1  1010 nM
15. COc1c(C2CCN(CCCCNC(=O)c3ccc(-c4ccc(Cl)cc4)c(OCC(N)=O)c3)CC2)ccc2c1CCCC2  1010 nM
16. COc1ccc2c(NN=Cc3ccccc3F)cc(C)nc2c1  1000 nM
17. CC(C)(C)c1ccc(CN2CCCCC(NC(=O)c3cc(-c4cccc(Cl)c4)cs3)C2)cc1 (stereo not drawn)  1000 nM
18. Cc1cc(N[C@@H](Cc2ccccc2)C(=O)NCc2cccs2)nc(NCC2CCCCC2)n1  990 nM
19. CCCNCc1ccc(-c2ccc(CN(CCOC)C(=O)CCc3ccc(OC)cc3)cc2)nc1  980 nM
20. Nc1cc2c(C3CCN(CC4CCN(C(=O)/C=C/c5ccc(Cl)c(Cl)c5)CC4)CC3)c[nH]c2cn1  970 nM
21. O=C(Nc1cccc(-c2ccc(CN3CCC(O)CC3)cc2)c1)c1ccc(Cl)cc1  960 nM
22. O=C(Nc1cccc(-c2ccc(-c3nc4ccc(F)cc4[nH]3)cc2)c1)c1ccoc1  960 nM
23. Cc1ccccc1N1CCN(c2ccc(C(=O)NC(C)C)cn2)CC1  900 nM
24. Cc1cc(N)cc2[nH]c(-c3ccc(N)cc3)nc12  890 nM
25. O=[N+]([O-])c1ccccc1C=NNc1ccnc2cc(Cl)ccc12  880 nM
26. CN(CCc1ccccc1)c1ncc(-c2cccc(CNCCC3CCCN3C)c2)cn1 (stereo not drawn)  870 nM
27. FC(F)(F)Oc1ccc(-c2cnc3ccc(NCc4ccncc4)nn23)cc1  870 nM
28. COc1ccc(-c2onc(C(F)(F)F)c2-c2cc3ccccc3o2)c(O)c1  860 nM
29. CCS(=O)(=O)c1ccc(-c2cnc3[nH]cc(-c4ccc(N)cc4)c3c2)cc1  850 nM
30. Cn1cc(CN2CCC(OC(c3ccccc3)c3ccc(Cl)cc3)CC2)cn1 (stereo not drawn)  840 nM
31. COc1cc(C)nc2ccc(NC(=O)Nc3ccccc3[N+](=O)[O-])cc12  840 nM
32. CCCCCCn1c(Sc2ccc(C#N)c([N+](=O)[O-])c2)nnc1-c1ccc(Cl)cc1  830 nM
33. Oc1cc(Nc2ccnc3cc(I)ccc23)c(F)cc1Cl  830 nM
34. Cc1ccc2nc(C)n(C3CCN(C(=O)C4(c5ccccc5)CC4)CC3)c2c1  820 nM
35. Cc1cc(NN=Cc2ccc(F)cc2)c2ccc(C(F)(F)F)cc2n1  820 nM
36. CC(C)(C)c1ccc(CNC(=O)c2cc(CNC3CCNC3)ccc2O)cc1 (stereo not drawn)  800 nM
37. CCCCCN1CCC(NS(=O)(=O)c2cccc(C(=O)Nc3ccc(C(F)(F)F)cc3)c2)C1 (stereo not drawn)  800 nM
38. COc1ccc(CCN2CC[C@H](Nc3nc(-c4ccc(F)c(F)c4)nc4ccccc34)C2)cc1S(N)(=O)=O  790 nM
39. C[C@@H]1CN(c2ccnc3ccc(Sc4ccc(Oc5ccccc5)cc4)cc23)C[C@H](C)N1  780 nM
40. O=C(Nc1ccc(Cl)c(C(F)(F)F)c1)Nc1ccc(Cl)c(C(F)(F)F)c1  770 nM
41. O=C(/C=C/c1ccc(Cl)c(Cl)c1)NCCCCCN1CCC(NC(=O)Nc2cccc(F)c2)CC1  770 nM
42. FC(F)(F)COc1c(CNCCCCCCNCc2ccc3ccccc3c2OCC(F)(F)F)ccc2ccccc12  760 nM
43. COc1ccc(NC(=O)/C=C/c2ccccc2Cl)cc1OCCN1CCC(NCc2cccnc2)CC1  760 nM
44. O=C(c1ccc(F)cc1)N1CCOC(CCN2CCC(c3ccccc3)CC2)(c2ccc(Cl)c(Cl)c2)C1 (stereo not drawn)  750 nM
45. N#Cc1cnc2cc(-c3cnc(CNCCN4CCOCC4)s3)ccc2c1Nc1ccc(Oc2ccccc2)cc1  730 nM
46. CCN(CCCN1CCCCC1)c1cc(C)nc(Nc2ccc(Cl)cc2C)n1  730 nM
47. CN1CCCN(Cc2cccc(-c3ccc(NC(=O)c4cccc(C#N)c4)cc3)c2)CC1  720 nM
48. CC(C)(C)c1ccc(CNC(=O)c2cc(CNC3CCNCC3)ccc2O)cc1  710 nM
49. CCC(C)(C)c1ccc(Oc2ccc(NC(=O)Nc3ccc(Cl)c(Cl)c3)cc2)cc1  700 nM
50. COc1ccc2nccc(N3CCC(NCCNCc4ccc5c(n4)NC(=O)CS5)C3)c2n1 (stereo not drawn)  690 nM
51. CN1CCC(C(=O)N(Cc2ccc(-c3ccc(CNCCc4ccc(S(C)(=O)=O)cc4)cn3)cc2)C2CCN(Cc3ccccc3)CC2)CC1  670 nM
52. CCCCCCN1CCCN(Cc2cccc(NC(=O)c3cc4ccccc4s3)c2)CC1  660 nM
53. O=C(CNC1CCCCC1)c1ccc(O)c(O)c1  660 nM
54. Cc1cc(N2CCCC2)nc(Nc2ccc(NC(=O)COc3ccccc3)cc2)n1  650 nM
55. CCCCOC(=O)c1ccc(Nc2cc(C)nc3ccc(OC)cc23)cc1  640 nM
56. CCc1ccc(NC(=O)c2ccc(CN3CCCN(CCC(C)C)CC3)cc2)cc1  630 nM
57. NC(=O)c1cccc(CNC(=O)NC[C@H]2CN(Cc3ccc(Cl)c(Cl)c3)CCO2)c1  590 nM
58. CN1CCN(c2ccc(-c3cccc(NC(=O)c4cccc(Cl)c4)c3)nn2)CC1  580 nM
59. CCn1c2c(c(=N)c3ccccc31)CCC2  500 nM
60. COc1cc(F)c2ncc(C#N)c(CCN3CCC(NCc4ccc5c(c4)OCCO5)CC3)c2c1  430 nM
61. c1ccc(Oc2ccc(Nc3ccnc4cc(-c5cccc(CNCCN6CCOCC6)c5)ccc34)cc2)cc1  390 nM
62. CCC(C)(C)C1CCc2[nH]c3ccccc3c(=O)c2C1 (stereo not drawn)  380 nM
63. O=C(Nc1cc(C(F)(F)F)ccc1N1CCOCC1)C(Cl)(Cl)Cl  370 nM
64. COc1cc(Cc2cnc(N)nc2N)cc(OCCCCc2nn[nH]n2)c1OC  290 nM
65. Fc1ccc2nc(-c3cccc(-c4ccc(CNCc5ccccc5)cc4)c3)[nH]c2c1  270 nM
66. O=C(/C=C/c1ccc(Cl)c(Cl)c1)N1CCC(CN2CCC(Cc3nc4ccccc4[nH]3)CC2)CC1  250 nM
67. COc1ccc(-c2cccc(NC(=O)c3cccc(Cl)c3)c2)cc1CN1CCCN(C)CC1  230 nM
68. Cc1ccccc1C1CCN(c2ccc(C(=O)Nc3ccc(F)cc3)cn2)CC1  190 nM
69. Fc1ccc2nc(-c3ccc(-c4ccc(CN5CCN(CCN6CCOCC6)CC5)cc4)cc3)[nH]c2c1  180 nM
70. CC1CCN(Cc2c(O)ccc3c(CN4CCC(C)CC4)c(O)ccc23)CC1  130 nM
71. COc1cc(F)c2ncc(Cl)c([C@@H](O)CN3CCC(NCc4ccc5c(n4)NC(=O)CO5)CC3)c2c1  120 nM
72. COc1ccc2nc3cc(Cl)ccc3c(NCCN3CCN(C)CC3)c2c1  120 nM
73. CC(C)(C)CC(C)(C)c1ccc(O)c(CNC2CCCCC2)c1  60 nM
